From ChEMBL document CHEMBL5096171, “Synthesis and Biological Evaluation of PSMA Ligands with Aromatic Residues and Fluorescent Conjugates Based on Them” (J Med Chem, 2021)
Converted amounts (≈) assume the structure as drawn.

Columns and labels:
[1] = Chronic toxicity in Soviet Chinchilla rabbit assessed as change in brain histology at 120 to 243 mg/kg, iv administered once every 3 weeks; format: organism-based, Oryctolagus cuniculus; details: in vivo, 504 h, dose 120-243 mg/kg
[2] = Acute toxicity in 10 to 12 hrs fasted Wistar rat assessed as change in body weight dynamics at 0.72 to 45 mg/kg, iv measured after 14 days; format: organism-based; details: in vivo, 336 h, dose 0.72-45 mg/kg, time 14 day
[3] = target: Glutamate carboxypeptidase 2 (Homo sapiens, UniProt Q04609); assay: Inhibition of PSMA derived from human LNCaP cell lysate assessed as inhibition of NAAG hydrolysis incubated for 2 hrs in presence of NAAG by Amplex Red assay; format: subcellular
Chain of Glutamate carboxypeptidase 2 (Q04609 whole entry): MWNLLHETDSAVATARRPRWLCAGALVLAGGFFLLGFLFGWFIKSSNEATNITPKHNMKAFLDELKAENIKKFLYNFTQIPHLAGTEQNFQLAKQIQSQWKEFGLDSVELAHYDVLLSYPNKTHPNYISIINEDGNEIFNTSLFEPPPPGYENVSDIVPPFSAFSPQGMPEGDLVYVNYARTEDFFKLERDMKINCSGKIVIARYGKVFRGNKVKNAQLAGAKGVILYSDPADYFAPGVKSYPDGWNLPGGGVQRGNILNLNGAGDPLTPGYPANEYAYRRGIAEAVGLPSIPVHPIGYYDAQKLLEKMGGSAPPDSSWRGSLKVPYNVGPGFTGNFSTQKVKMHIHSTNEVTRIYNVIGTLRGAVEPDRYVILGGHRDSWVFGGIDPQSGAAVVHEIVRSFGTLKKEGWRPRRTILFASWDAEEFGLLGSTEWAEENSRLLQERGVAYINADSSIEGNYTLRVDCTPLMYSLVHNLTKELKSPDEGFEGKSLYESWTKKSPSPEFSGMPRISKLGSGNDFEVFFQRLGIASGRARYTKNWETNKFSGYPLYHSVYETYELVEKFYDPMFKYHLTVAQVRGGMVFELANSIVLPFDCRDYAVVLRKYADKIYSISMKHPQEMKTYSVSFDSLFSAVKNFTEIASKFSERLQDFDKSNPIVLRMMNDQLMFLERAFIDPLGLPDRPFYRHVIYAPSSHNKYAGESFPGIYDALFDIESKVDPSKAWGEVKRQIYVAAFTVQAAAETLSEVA

[4] = Acute toxicity in 10 to 12 hrs fasted Wistar rat assessed as increase in kidney damage at 45 mg/kg, iv measured after 14 days; format: organism-based; details: in vivo, 336 h, time 14 day
[5] = Drug excretion in […] at 0.449 mg/kg, IT administered as single dose measured after 24 hrs; format: ADME, organism-based, CWR22R; details: in vivo, other
[6] = MRT (0 to t) in Wistar Albino rat by HPLC analysis; format: ADME; details: in vivo
[7] = Acute toxicity in 2 hrs fasted ICR mouse assessed as reversible decrease in body weight dynamics at 89.7 mg/kg, iv measured after 14 days; format: organism-based; details: in vivo, 336 h, time 14 day
[8] = Chronic toxicity in Soviet Chinchilla rabbit assessed as change in liver histology at 120 to 243 mg/kg, iv administered once every 3 weeks; format: organism-based, Oryctolagus cuniculus; details: in vivo, 504 h, dose 120-243 mg/kg
[9] = Chronic toxicity in Soviet Chinchilla rabbit assessed as change in kidney histology at 120 to 243 mg/kg, iv administered once every 3 weeks; format: organism-based, Oryctolagus cuniculus; details: in vivo, 504 h, dose 120-243 mg/kg
[10] = Acute toxicity in 2 hrs fasted ICR mouse assessed as maximum tolerated dose administered intravenously measured after 14 days; details: in vivo, route iv
[11] = AUC (0 to infinity) in Wistar Albino rat by HPLC analysis; format: ADME; parameters: time infinity; details: in vivo
[12] = C0 in Wistar Albino rat by HPLC analysis; format: ADME; details: in vivo
[13] = AUC (0 to infinity) in Soviet Chinchilla rabbit by HPLC analysis; format: ADME, Oryctolagus cuniculus; parameters: time infinity; details: in vivo
[14] = MRT (0 to t) in Soviet Chinchilla rabbit by HPLC analysis; format: ADME, Oryctolagus cuniculus; details: in vivo
[15] = Acute toxicity in 2 hrs fasted ICR mouse assessed as restoration of mass gain rate at 89.7 mg/kg, iv measured on day 14; format: organism-based; details: in vivo, 336 h, time 14 day
[16] = Acute toxicity in 2 hrs fasted ICR mouse assessed as toxic effect at 1.1 mg/kg, iv measured after 14 days; format: organism-based; details: in vivo, 336 h, time 14 day
[17] = Chronic toxicity in Soviet Chinchilla rabbit assessed as change in blood albumin content at 120 to 243 mg/kg, iv administered once every 3 weeks; format: organism-based, Oryctolagus cuniculus; details: in vivo, 504 h, dose 120-243 mg/kg
[18] = Drug distribution in small intestine of Wistar Albino rat measured after 2 to 4 hrs; format: ADME, tissue-based; details: in vivo, time 2-4 hrs
PC-3 = assay: Cytotoxicity against human PC-3 cells assessed as reduction in cell viability incubated for 5 days by MTT assay; format: functional; details: PC-3, 120 h, time 5 day
[19] = Elimination rate constant in Wistar Albino rat by HPLC analysis; format: ADME
[20] = Half life in Wistar Albino rat by HPLC analysis; format: ADME; details: in vivo
[21] = Water solubility of the compound; format: physicochemical
[22] = Volume of distribution in Wistar Albino rat by HPLC analysis; format: ADME; details: in vivo
[23] = Drug excretion in urine of Wistar Albino rat measured after 2 to 4 hrs; format: ADME; details: in vivo, time 2-4 hrs
[24] = Acute toxicity in 10 to 12 hrs fasted Wistar rat assessed as maximum tolerated dose administered intravenously measured after 14 days; details: in vivo, route iv, time 14 day
[25] = n-Octanol/aqueous buffer distribution coefficient, log D of compound at pH 6.4 by shake flask method; format: physicochemical
[26] = Half life in Soviet Chinchilla rabbit by HPLC analysis; format: ADME, Oryctolagus cuniculus; details: in vivo
[27] = AUC (0 to t) in Soviet Chinchilla rabbit by HPLC analysis; format: ADME, Oryctolagus cuniculus; details: in vivo
[28] = Drug distribution in liver of Wistar Albino rat measured after 2 to 4 hrs; format: ADME, tissue-based; details: in vivo, time 2-4 hrs
[29] = Clearance in Soviet Chinchilla rabbit by HPLC analysis; format: ADME, Oryctolagus cuniculus; details: in vivo
[30] = Clearance in Wistar Albino rat by HPLC analysis; format: ADME; details: in vivo
[31] = Drug uptake in human 22Rv1 cells xenografted in Balb/c nude mouse assessed as amount of fluorescence intensity at 0.449 mg/kg, IT administered as single dose measured after 24 hrs by IVIS Spectrum CT analysis; format: ADME, organism-based, CWR22R; details: in vivo, other
[32] = Chronic toxicity in Soviet Chinchilla rabbit assessed as signs of intoxication at 120 to 243 mg/kg, iv administered once every 3 weeks; format: organism-based, Oryctolagus cuniculus; details: in vivo, 504 h, dose 120-243 mg/kg
[33] = Chronic toxicity in Soviet Chinchilla rabbit assessed as change in lung histology at 120 to 243 mg/kg, iv administered once every 3 weeks; format: organism-based, Oryctolagus cuniculus; details: in vivo, 504 h, dose 120-243 mg/kg
[34] = Drug distribution in blood plasma of Wistar Albino rat measured after 2 to 4 hrs; format: ADME, cell-free; details: time 2-4 hrs
[35] = AUC (0 to t) in Wistar Albino rat by HPLC analysis; format: ADME; details: in vivo
LNCaP = assay: Cytotoxicity against human LNCaP cells assessed as reduction in cell viability incubated for 5 days by MTT assay; format: functional; details: 120 h, time 5 day
[36] = Acute toxicity in 10 to 12 hrs fasted Wistar rat assessed as toxic effect at 0.72 to 45 mg/kg, iv measured after 14 days; format: organism-based; details: in vivo, 336 h, dose 0.72-45 mg/kg, time 14 day
[37] = Acute toxicity in 2 hrs fasted ICR mouse assessed as body weight reduction at 89.7 mg/kg, iv measured for 5 to 10 days; format: organism-based; details: in vivo
[38] = Drug uptake in bloodstream of Balb/c nude mouse xenografted with human 22Rv1 cells at 0.449 mg/kg, IT administered as single dose measured upto 8 hrs; format: ADME, organism-based, Blood, CWR22R; details: in vivo, other
[39] = C0 in Soviet Chinchilla rabbit by HPLC analysis; format: ADME, Oryctolagus cuniculus; details: in vivo
[40] = Chronic toxicity in Soviet Chinchilla rabbit assessed as change in heart histology at 120 to 243 mg/kg, iv administered once every 3 weeks; format: organism-based, Oryctolagus cuniculus; details: in vivo, 504 h, dose 120-243 mg/kg
[41] = Drug uptake in human PC-3 cells xenografted in Balb/c nude mouse assessed as amount of fluorescence intensity at 0.449 mg/kg, IT administered as single dose measured after 24 hrs by IVIS Spectrum CT analysis; format: ADME, organism-based; details: in vivo, other
[42] = Volume of distribution in Soviet Chinchilla rabbit by HPLC analysis; format: ADME, Oryctolagus cuniculus; details: in vivo
[43] = Elimination rate constant in Soviet Chinchilla rabbit by HPLC analysis; format: ADME, Oryctolagus cuniculus
[44] = Drug distribution in kidney of Wistar Albino rat measured after 2 to 4 hrs; format: ADME, tissue-based; details: in vivo, time 2-4 hrs
[45] = Chronic toxicity in Soviet Chinchilla rabbit assessed as change in spleen histology at 120 to 243 mg/kg, iv administered once every 3 weeks; format: organism-based, Oryctolagus cuniculus; details: in vivo, 504 h, dose 120-243 mg/kg

In the case of `CN1/C(=C/C=C2C=C(/C=C/C3=[N+](CCCCCC(=O)NCc4cn(CCCNC(=O)[C@H](Cc5ccc(O)cc5)NC(=O)[C@H](Cc5ccccc5)NC(=O)CCC(=O)NCCCCCC(=O)N(CCCC[C@H](NC(=O)N[C@@H](CCC(=O)O)C(=O)O)C(=O)O)Cc5cccc(Cl)c5)nn4)c4ccc(S(=O)(=O)[O-])cc4C3(C)C)CCC/2)C(C)(C)c2cc(S(=O)(=O)O)ccc21`, the Activity [1] is reported as “Non-Toxic”, the Activity [2] is reported as “Non-Toxic” and the Ki [3] is reported as 0.0181 µM. For the same molecule, the Activity [4] was “Toxic”, the Drug uptake [5] was “Active” and the MRT last [6] was 0.719 h. The Activity [7] was “Toxic”, the Activity [8] was “Non-Toxic” and the Activity [9] was “Non-Toxic”. The MTD at 14 h [10] was 89.7 mg/kg, the AUC(0-inf) [11] was 76000 ng·h/mL and the C0 [12] was 342 µg/mL. The AUC(0-inf) [13] was 82000 ng·h/mL, the MRT last [14] was 0.18 h and the Activity [15] was “Non-Toxic”. The Activity [16] was “Non-Toxic”, the Activity [17] was “Toxic” and the Drug uptake [18] was “Active”. The CC50 (PC-3) was 18.7 µM, the k el [19] was 0.000179 s⁻¹ and the half-life [20] was 1.78 h. The solubility [21] was 560 µg/mL (≈ 312 µM), the Vd [22] was 0.954 L/kg and the Drug excretion [23] was “Active”. For the same molecule, the MTD at 336 h [24] was 45 mg/kg, the logD [25] was -0.48 and the half-life [26] was 1.39 h. For the same molecule, the AUC(0-t) [27] was 70000 ng·h/mL, the Drug uptake [28] was “Active” and the clearance [29] was 14 mL/min/kg. For the same molecule, the clearance [30] was 8.22 mL/min/kg, the Activity [31] was 1.9 10^9(p/s)(uW/cm^2) and the Activity [32] was “Non-Toxic”. For the same molecule, the Activity [33] was “Non-Toxic”, the Drug uptake [34] was “Active” and the AUC(0-t) [35] was 53000 ng·h/mL. For the same molecule, the CC50 (LNCaP) was 12.2 µM, the Activity [36] was “Non-Toxic” and the Activity [37] was “Toxic”. The Drug uptake [38] was “Active”, the C0 [39] was 869 µg/mL and the Activity [40] was “Non-Toxic”. The Activity [41] was 1.9 10^9(p/s)(uW/cm^2), the Vd [42] was 1.49 L/kg and the k el [43] was 0.000181 s⁻¹. The Drug uptake [44] was “Active” and the Activity [45] was “Non-Toxic”.

With `CN1/C(=C/C=C2C=C(/C=C/C3=[N+](CCCCCC(=O)O)c4ccc(S(=O)(=O)[O-])cc4C3(C)C)CCC/2)C(C)(C)c2cc(S(=O)(=O)O)ccc21` the Activity [1] was “Non-Toxic”, the Activity [8] was “Non-Toxic” and the Activity [9] was “Non-Toxic”. For the same molecule, the Activity [17] was “Toxic”, the CC50 (PC-3) was over 100 µM and the Activity [32] was “Non-Toxic”. The Activity [33] was “Non-Toxic”, the CC50 (LNCaP) was over 100 µM and the Activity [40] was “Non-Toxic”. For the same molecule, the Activity [45] was “Non-Toxic”.
